Results reported in patent US20230293614A1, “COMPOSITIONS AND METHODS OF TREATING UPS-ASSOCIATED DISEASES” (Board of Supervisors of Louisiana State University and …, priority 2020, published 2023).

Columns and labels:
DUB = assay: Experiment 3: DUB reporter Z-LRGG-AMC with control, 5011 and DMC-2 treated lysates; type: biochemical
Protocol: Peptide used was the commercial DUB reporter [Z-LRGG-AMC (SEQ ID NO: 1)] at multiple concentrations [50-150 uM]. 1100 uL protein at 6 mg/mL for each set was given. Final protein concentration in micro-wells was 4 mg/mL. Peptide was incubated with control, 5011 treated, 1 ug/mL DMC-2, 10 ug/mL DMC-2, and 30 ug/mL DMC-2 in DUB assay buffer. Fluorometric readings were taken at different time points in plate reader. Measured at [Em 460/Ex 355]. Fluorescent signals were converted to μM/min using a calibration curve for the AMC fluorophore. Rates were plotted vs. substrate concentration (Z-LRGG-AMC peptide (SEQ ID NO: 1)) (FIG. 10). […] The curves are not perfect logarithmic curves but we can observe the trend. The results with different concentrations of DMC-2 were further plotted. When compared with control: the 5011 treatment enhances DUB activity, DMC-2 being the active part of 5011, also enhances the DUB activity. From FIG. 11, the lowest concentration of DMC2-1 μg/mL has most effect on DUB activity when compared to 30 μg/mL. Without wishing to be bound by theory, some data fluctuation with DMC-2 can occur in the 1 μg/mL range.

[1] = test system: deubiquitinating enzymes (DUBs); assay: DUB activity (Z-LRGG-AMC cleavage) in lysates of treated OPM2 cells; type: cell-based; conditions: for Vmax / effect on DUB activity vs DMSO control / Km / n (Hill coefficient): 16 h
Protocol: OPM2 cells were maintained in RPMI 1640 media supplemented with 12% FBS, 21.8 mM glucose, 8.6 mM HEPES (pH 7.4) and 1.0 mM sodium pyruvate. MM.1S cell line were maintained in RPMI 1640 media supplemented with 10% FBS. The cells were all cultured in T175 flasks (VWR, Radnor, Pa.). All media components were from Corning, Atlanta, Ga. unless otherwise noted. To test the effect of the ethanolic extract and bioactive compounds on DUB activity, cells were exposed to a 16-h pretreatment with 10 μg/mL of PMI-5011 and 1, 10, 30 μg/mL concentrations of DMC-1, DMC-2, KOE, and davidigenin before lysing the cells for experimentation. All compounds were reconstituted in DMSO to obtain stock concentrations, which was further diluted in culture media to obtain the desired experimental concentrations. For vehicle control, a subpopulation of cells was treated with pure DMSO diluted in a similar manner for the same duration. Upon treatment, cell lysates (both OPM2 and MM.1S) were generated by harvesting 1×10^6 cells/mL, followed by washing 2× and pelleting in phosphate buffered saline (PBS; 137 mM NaCl, 10 mM Na2HPO4, […], and 1.75 mM KH2PO4 at pH 7.4). The cell pellet was re-suspended in an approximately equivalent volume of M-PER to the volume of the cell pellet (1000-2000 μL) then vortexed for 10 min at room temperature. Following this, the mixture was centrifuged at 14,000×g for 15 min at 4° C. and the supernatant transferred to a centrifuge tube and stored on ice until use. Total protein concentration was determined using a NanoDrop 2000c (Thermo Scientific, Madison, Wis.).
The commercial DUB reporter, Z-LRGG-AMC (substrate) (SEQ ID NO: 1) was reconstituted in DMSO to obtain a final stock concentration of 1.44 mM. This stock reporter was diluted as needed in assay buffer (50 mM HEPES, pH 7.4, 150 mM NaCl, 2 mM DTT, and 0.02% Tween-20) supplemented with 4 mg/mL cell lysates (source of DUBs) to reach the desired reporter concentration with a final volume of 100 μL in a 96-well plate. OPM2 and MM.1S cell lysates from different treatments (10 μg/mL of PMI-5011; 1, 10, and 30 μg/mL of DMC-1, DMC-2, KOE, davidigenin and control vehicle DMSO) and C2C12 cell lysates were used to interrogate the effect of the ethanolic extract and selected bioactive compounds on DUB activity. Reporter only and lysates only (noise/background) samples were included in the 96-well plate to confirm that the rates observed were due to DUB-mediated hydrolysis initiated by the cell lysates. The 96-well plate was maintained at a temperature of 30° C. in the dark for the duration of the experiment. The fluorescence signals emitted as a result of DUB-mediated cleavage of AMC (λex=355 nm and λem=460 nm) were quantified using a Wallac 1420 VICTOR2 multilabel HTS counter fluorometry (Perkin Elmer (Waltham, Mass.). Readings were collected every 30 min for 6 h. The normalized signals were obtained by comparing the treatment with noise and background fluorescence values which were then statistically analyzed for their significance. Each data point represents triplicate data points from duplicate experiments. A calibration curve was generated for known concentrations of AMC to correlate the fluorescence signal (AU) to concentration (μM). The approximate concentration of free fluorophore was used to calculate reaction rates (μM/min) for each substrate concentration using linear regression analysis.
All data visualization, interpretation and curve-fittings were performed using Origin Pro (OriginLab, Northampton, MA) while statistical analyses of experimental data were carried out using SAS 9.4 (SAS Solutions). The analyses of enzyme-substrate reactions in all cell lysates started with scatter plotting the fluorometry signals (p,M) measured for each substrate concentration against time (min). Fluorescence signals measured for each substrate concentration remained stable during the first 30 min, indicating there was a 30-minute lag period before reaction initiation. […]

COc1ccc(CCC(=O)c2ccc(O)cc2O)cc1 [DMC-2, 1-(2,4-dihydroxyphenyl)-3-(4-methoxyphenyl)propan-1-one]
concentration with most effect on DUB activity (DUB; compared to 30 μg/mL): 1 µg/mL
effect on DUB activity vs control (DUB; treated lysates 4 mg/mL, DMC-2 at 1, 10, 30 ug/mL): enhances
Vmax ([1]; OPM2, 1 μg/mL): 21.38 ± 2.68 µM/min
effect on DUB activity vs DMSO control ([1]; OPM2, 1 μg/mL): significantly enhanced
Vmax ([1]; OPM2, 10 μg/mL): 22.71 ± 1.64 µM/min
effect on DUB activity vs DMSO control ([1]; OPM2, 10 μg/mL): significantly enhanced
Vmax ([1]; OPM2, 30 μg/mL): 184.79 ± 22.09 µM/min
effect on DUB activity vs DMSO control ([1]; OPM2, 30 μg/mL): significantly enhanced
effect of increasing concentration on DUB activity (normalized Vmax) ([1]; OPM2, 1, 10, 30 μg/mL, regression fit): exponential increase
Km ([1]; Table 2, OPM-2, 1 μg/mL): 44.8 µM
n (Hill coefficient) ([1]; Table 2, OPM-2, 1 μg/mL): 1.47
Vmax ([1]; Table 2, OPM-2, 1 μg/mL, in µM/min): 21.38
Km ([1]; Table 2, OPM-2, 10 μg/mL): 35.5 µM
n (Hill coefficient) ([1]; Table 2, OPM-2, 10 μg/mL): 1.59
Vmax ([1]; Table 2, OPM-2, 10 μg/mL, in µM/min): 22.71
Km ([1]; Table 2, OPM-2, 30 μg/mL): 48.2 µM
n (Hill coefficient) ([1]; Table 2, OPM-2, 30 μg/mL): 1.49
Vmax ([1]; Table 2, OPM-2, 30 μg/mL, in µM/min): 184.79
